Patent US20230203058A1, “MACROCYCLIC DIAMINE DERIVATIVES AS ENT INHIBITORS FOR THE TREATMENT OF CANCERS, AND COMBINATION THEREOF WITH ADENOSINE RECEPTOR ANTAGONISTS” (ITEOS BELGIUM SA, priority 2020, published 2023)
Like-named read-outs stand apart in the source and are kept apart here.

Assays:
[1] = test system: stimulated primary human T cells; assay: T cell proliferation assay (rescue of proliferation in presence of ATP, CFSE dilution); assay type: cell-based; conditions: 100 uM ATP
hERG ion channel = biological target: T1, hERG ion channel (Homo sapiens, UniProt Q12809); assay: hERG ion channel inhibition (Patchliner automated patch-clamp, CHO cells); assay type: cell-based; conditions: whole-cell, room temperature, 6-point curve up to 100 µM
T1 construct: Chinese Hamster Ovary cell lines stably expressing the full-length ion channel; expressed in transfected cells
T1 sequence (Q12809 whole entry): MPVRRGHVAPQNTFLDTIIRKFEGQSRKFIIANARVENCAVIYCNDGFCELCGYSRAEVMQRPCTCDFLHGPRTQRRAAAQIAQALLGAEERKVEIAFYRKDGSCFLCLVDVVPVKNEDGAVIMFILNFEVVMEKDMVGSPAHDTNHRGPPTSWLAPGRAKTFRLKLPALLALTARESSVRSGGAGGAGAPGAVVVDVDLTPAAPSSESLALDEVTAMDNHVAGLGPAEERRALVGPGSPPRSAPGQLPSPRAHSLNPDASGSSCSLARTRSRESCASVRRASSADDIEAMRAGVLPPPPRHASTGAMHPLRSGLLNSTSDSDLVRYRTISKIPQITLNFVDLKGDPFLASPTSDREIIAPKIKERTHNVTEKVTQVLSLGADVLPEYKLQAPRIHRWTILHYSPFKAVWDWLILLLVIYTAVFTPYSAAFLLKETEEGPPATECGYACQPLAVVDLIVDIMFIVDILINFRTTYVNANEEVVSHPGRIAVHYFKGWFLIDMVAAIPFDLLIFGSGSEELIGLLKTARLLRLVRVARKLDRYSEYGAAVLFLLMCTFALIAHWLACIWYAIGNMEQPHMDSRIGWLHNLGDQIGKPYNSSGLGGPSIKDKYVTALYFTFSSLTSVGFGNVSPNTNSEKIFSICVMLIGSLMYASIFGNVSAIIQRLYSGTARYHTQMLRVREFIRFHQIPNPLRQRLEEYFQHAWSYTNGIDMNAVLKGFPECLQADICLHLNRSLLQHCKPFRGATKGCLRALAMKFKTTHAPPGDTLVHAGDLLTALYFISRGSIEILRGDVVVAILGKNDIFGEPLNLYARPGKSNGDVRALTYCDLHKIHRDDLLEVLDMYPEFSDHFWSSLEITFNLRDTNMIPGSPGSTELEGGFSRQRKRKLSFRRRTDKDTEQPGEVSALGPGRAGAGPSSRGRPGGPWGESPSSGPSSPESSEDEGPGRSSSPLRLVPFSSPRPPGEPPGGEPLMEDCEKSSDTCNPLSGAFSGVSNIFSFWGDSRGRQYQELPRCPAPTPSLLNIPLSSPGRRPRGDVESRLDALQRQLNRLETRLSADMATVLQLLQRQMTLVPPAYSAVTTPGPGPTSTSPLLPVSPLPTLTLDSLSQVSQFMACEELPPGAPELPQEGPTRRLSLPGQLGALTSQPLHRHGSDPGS
Experimental: The compounds were tested for inhibition of hERG ion channel. 6-Point concentration-response curves were generated on the Patchliner automated patch-clamp using serial dilutions from a maximum test concentration of 100 µM.
Compounds were solubilised to 33 mM in DMSO before dilution in HBPS to 100 µM. 6-Point concentration-response curves were generated using serial dilutions from the top test concentration. Electrophysiological recordings were made from a Chinese Hamster Ovary cell lines stably expressing the full-length ion channel. Single cell ionic currents were measured in whole-cell configuration at room temperature (21-23° C.) using a Patchliner (Nanion Technologies). The internal solution for hERG contained (mM): 120 KF, 20 KCl, 10 EGTA, 10 HEPES and was buffered to pH 7.3. The external solution (HEPES-buffered saline, HBPS) contained (mM): 138 NaCl, 4.5 KCl, 1.8 CaC12, 1.0 MgC12, 10 HEPES, 10 glucose, buffered to pH7.4. Cells were clamped at a holding potential of -80 mV before a depolarising step appropriate for the hERG channel. Currents were measured from the step and referenced to the holding current. Compounds were incubated for 90 seconds. Concentration-response curves were generated by cumulative addition of compound with concentrations low to high. In all cases, steady-state inhibition was achieved before the next concentration of compound was added.
IC50 values were obtained from a 4-parameter logistic fit of the concentration-response data: […]

COc1cc(C(=O)O[C@H]2CCCOc3cc(cc(OC)c3OC)C(=O)OCCCN3CCCN(CC2)CC3)cc(OC)c1OC [Compound 2, (12S)-74,75-dimethoxy-6-oxo-5,8-dioxa-1(1,4)-diazepana-7(1,3)-benzenacyclotetradecaphane-12-yl 3,4,5-trimethoxybenzoate]
IC50 ([1]; Condition A: X-VIVO15, read-out: T Cell proliferation (Condition A) IC50): 20 to 500 nM
IC50 ([1]; Condition B: X-VIVO15, 2% HSA and 0,1% AAG, read-out: (2) T Cell proliferation (Condition B) IC50): 20 to 500 nM
IC50 (hERG ion channel): 2500 nM
